Laboratory results published in patent US6334944B1, “Process for producing an amino acid-N,N-diacetic acid and its salts” (Showa Denko K.K., priority 1998, dated 2002).

Experiment: Hygroscopicity and redissolution of dried powder or crystal
Type: physicochemical
Settings: for Hygroscopicity: dried powder or crystal
Procedure: The powder contained 9.98% of calcium.
The crystal was dried in air at 25° C. to reduce the moisture content to 0.7%.

Row | Compound | Hygroscopicity | Dissolution of powder in water (spray-dried powder)
1 | O=C([O-])CCC(C(=O)[O-])N(CC(=O)[O-])CC(=O)[O-].[Fe+3].[NH4+] (stereo not drawn) [Example 22, ammonium ferric salt of glutamic acid-N,N-diacetic acid] | free of hygroscopicity | 
2 | calcium disodium glutamic acid-N,N-diacetate [Example 13] | free of hygroscopicity | readily dissolved in water
